System: NAD biosynthesis pathway
Test: Monitoring inhibition of NAD biosynthesis
Format: cell-based
Details: 48 hours of treatment; several cell lines; detection with PBI 4312
Procedure: Cells were plated at 7.5×10^3 cells/12.5 ul into wells of a 384-well plates. The cells were plated in full media containing 10% FBS (PC3 and A549 cells in F12K; Hela, MD-AMB and HET 116 cells in DMEM without pyruvate; HepG2 cells in E-MEM and Jurkat cells in RPMI). […] The cells were placed in a CO2 dependent incubator. […] Promega Cat. No V8920) was added to each well. The reaction was incubated for 30 minutes at room temperature, and luminescence measured using a Tecan plate luminometer. The data are shown as % inhibition compared to control (no inhibitor) and are plotted using the sigmoidal dose-response, variable slope model supplied with SigmaPlot 11.0 software. A signal-to-background ratio (S/B) calculated between control cells and cells treated with the highest FK866 concentration.

O=C(/C=C/c1cccnc1)NCCCCC1CCN(C(=O)c2ccccc2)CC1 [FK866]
effect on cellular NAD levels: decrease in NAD levels

Reference: patent publication US9951372B2, “Compounds and methods for assaying redox state of metabolically active cells and methods for measuring NAD(P)/NAD(P)H” (PROMEGA CORPORATION, priority 2011, dated 2018)
